Like-named read-outs stand apart in the source and are kept apart here.
Key:
Assay in all cases: Test E pre-/postemergence plant response
Format in all cases: in vivo
[1] = test system: blackgrass (Alopecurus myosuroides); settings: scale 0 to 100, read-out: Plant response rating, Blackgrass; for pest or weed control at 16 g/ha: 16 g ai/ha; for pest or weed control at 31 g/ha: 31 g ai/ha; for pest or weed control at 62 g/ha: 62 g ai/ha; for pest or weed control at 125 g/ha: 125 g ai/ha
From the text: (§1) Seeds of plant species selected from bluegrass (annual bluegrass, Poa annua), blackgrass (Alopecurus myosuroides), canarygrass (Phalaris minor), chickweed (common chickweed, Stellaria media), galium (catchweed bedstraw, Galium aparine), downy bromegrass (Bromus tectorum), field poppy (Papaver rhoeas), field violet (Viola arvensis), green foxtail (Setaria viridis), deadnettle (henbit deadnettle, Lamium amplexicaule), Italian ryegrass (Lolium multiflorum), kochia (Kochia scoparia), lambsquarters (Chenopodium album), oilseed rape (Brassica napus), pigweed (Amaranthus retroflexus), Russian thistle (Salsola iberica), chamomile (scentless chamomile, Matricaria inodora), speedwell (bird's-eye speedwell, Veronica persica), spring barley (Hordeum vulgare), spring wheat (Triticum aestivum), wild buckwheat (Polygonum convolvulus), wild mustard (Sinapis arvensis), wild oat (Avena fatua), wild radish (Raphanus raphanistrum), windgrass (Apera spica-venti), winter barley (Hordeum vulgare), and winter wheat (Triticum aestivum) were planted into a silt loam soil and treated preemergence with test chemicals formulated in a non-phytotoxic solvent mixture which included a surfactant. At the same time, these species were planted in pots containing Redi-Earth® planting medium (Scotts Company, 14111 Scottslawn Road, Marysville, Ohio 43041) comprising spaghnum peat moss, vermiculite, wetting agent and starter nutrients and treated with postemergence applications of the test chemicals formulated in the same manner. Plants ranged in height from 2 to 18 cm (1- to 4-leaf stage).
(§2) Treated plants and controls were maintained in a controlled growth environment for 7 to 21 days after which time all species were compared to controls and visually evaluated. Plant response ratings, summarized in Table E, are based on a scale of 0 to 100 where 0 is no effect and 100 is complete control. A dash (-) response means no test result.

[2] = test system: canarygrass (Phalaris minor); settings: scale 0 to 100, read-out: Plant response rating, Canarygrass; for pest or weed control at 16 g/ha: 16 g ai/ha; for pest or weed control at 31 g/ha: 31 g ai/ha; for pest or weed control at 62 g/ha: 62 g ai/ha; for pest or weed control at 125 g/ha: 125 g ai/ha
From the text: as §1, §2

[3] = test system: chamomile (scentless chamomile, Matricaria inodora); settings: Tripleurospermum inodorum, post-emergence, Postemergence, scale 0 to 100, read-out: Plant response rating, Chamomile
From the text: as §1, §2

[4] = test system: deadnettle (henbit deadnettle, Lamium amplexicaule); settings: scale 0 to 100, read-out: Plant response rating, Deadnettle; for pest or weed control at 16 g/ha: 16 g ai/ha; for pest or weed control at 31 g/ha: 31 g ai/ha; for pest or weed control at 62 g/ha: 62 g ai/ha; for pest or weed control at 125 g/ha: 125 g ai/ha
From the text: as §1, §2

[5] = test system: downy bromegrass (Bromus tectorum); settings: scale 0 to 100, read-out: Plant response rating, Bromegrass, Downy; for pest or weed control at 16 g/ha: 16 g ai/ha; for pest or weed control at 31 g/ha: 31 g ai/ha; for pest or weed control at 62 g/ha: 62 g ai/ha; for pest or weed control at 125 g/ha: 125 g ai/ha
From the text: as §1, §2

[6] = test system: field poppy (Papaver rhoeas); settings: scale 0 to 100, read-out: Plant response rating, Field Poppy; for pest or weed control at 16 g/ha: 16 g ai/ha; for pest or weed control at 31 g/ha: 31 g ai/ha; for pest or weed control at 62 g/ha: 62 g ai/ha; for pest or weed control at 125 g/ha: 125 g ai/ha
From the text: as §1, §2

[7] = test system: green foxtail (Setaria viridis); settings: scale 0 to 100, read-out: Plant response rating, Foxtail, Green; for pest or weed control at 16 g/ha: 16 g ai/ha; for pest or weed control at 31 g/ha: 31 g ai/ha; for pest or weed control at 62 g/ha: 62 g ai/ha; for pest or weed control at 125 g/ha: 125 g ai/ha
From the text: as §1, §2

[8] = test system: pigweed (Amaranthus retroflexus); settings: scale 0 to 100, read-out: Plant response rating, Pigweed; for pest or weed control at 16 g/ha: 16 g ai/ha; for pest or weed control at 31 g/ha: 31 g ai/ha; for pest or weed control at 62 g/ha: 62 g ai/ha; for pest or weed control at 125 g/ha: 125 g ai/ha
From the text: as §1, §2

[9] = test system: wild mustard (Sinapis arvensis); settings: Brassica, scale 0 to 100, read-out: Plant response rating, Mustard, Wild; for pest or weed control at 16 g/ha: 16 g ai/ha; for pest or weed control at 31 g/ha: 31 g ai/ha; for pest or weed control at 62 g/ha: 62 g ai/ha; for pest or weed control at 125 g/ha: 125 g ai/ha
From the text: as §1, §2

[10] = test system: windgrass (Apera spica-venti); settings: scale 0 to 100, read-out: Plant response rating, Windgrass; for pest or weed control at 16 g/ha: 16 g ai/ha; for pest or weed control at 62 g/ha: 62 g ai/ha; for pest or weed control at 125 g/ha: 125 g ai/ha
From the text: as §1, §2

[11] = test system: winter barley (Hordeum vulgare); settings: scale 0 to 100, read-out: Plant response rating, Barley, Winter; for plant injury at 16 g/ha: 16 g ai/ha; for plant injury at 31 g/ha: 31 g ai/ha; for plant injury at 62 g/ha: 62 g ai/ha; for plant injury at 125 g/ha: 125 g ai/ha
From the text: as §1, §2

Structure (SMILES): Fc1cccc(Oc2ncc(Cl)cn2)c1-c1cc(C(F)(F)F)on1 [Compound 168, 5-chloro-2-[2-[5-(trifluoromethyl)-3-isoxazolyl]-3-fluorophenoxy]pyrimidine]
- pest or weed control at 16 g/ha ([1]; post-emergence, Postemergence): 15%
- pest or weed control at 31 g/ha ([1]; post-emergence, Postemergence): 25%
- pest or weed control at 62 g/ha ([1]; post-emergence, Postemergence): 35%
- pest or weed control at 125 g/ha ([1]; post-emergence, Postemergence): 60%
- pest or weed control at 16 g/ha ([1]; pre-emergence, Preemergence): 10%
- pest or weed control at 31 g/ha ([1]; pre-emergence, Preemergence): 35%
- pest or weed control at 62 g/ha ([1]; pre-emergence, Preemergence): 100%
- pest or weed control at 125 g/ha ([1]; pre-emergence, Preemergence): 100%
- pest or weed control at 16 g/ha ([2]; post-emergence, Postemergence): 15%
- pest or weed control at 31 g/ha ([2]; post-emergence, Postemergence): 15%
- pest or weed control at 62 g/ha ([2]; post-emergence, Postemergence): 25%
- pest or weed control at 125 g/ha ([2]; post-emergence, Postemergence): 55%
- pest or weed control at 16 g/ha ([2]; pre-emergence, Preemergence): 15%
- pest or weed control at 31 g/ha ([2]; pre-emergence, Preemergence): 15%
- pest or weed control at 62 g/ha ([2]; pre-emergence, Preemergence): 100%
- pest or weed control at 125 g/ha ([2]; pre-emergence, Preemergence): 100%
- pest or weed control at 16 g/ha ([3]; 16 g ai/ha): 5%
- pest or weed control at 31 g/ha ([3]; 31 g ai/ha): 5%
- pest or weed control at 62 g/ha ([3]; 62 g ai/ha): 10%
- pest or weed control at 125 g/ha ([3]; 125 g ai/ha): 10%
- pest or weed control at 16 g/ha ([4]; post-emergence, Postemergence): 20%
- pest or weed control at 31 g/ha ([4]; post-emergence, Postemergence): 55%
- pest or weed control at 62 g/ha ([4]; post-emergence, Postemergence): 75%
- pest or weed control at 125 g/ha ([4]; post-emergence, Postemergence): 80%
- pest or weed control at 16 g/ha ([4]; pre-emergence, Preemergence): 10%
- pest or weed control at 31 g/ha ([4]; pre-emergence, Preemergence): 50%
- pest or weed control at 62 g/ha ([4]; pre-emergence, Preemergence): 80%
- pest or weed control at 125 g/ha ([4]; pre-emergence, Preemergence): 100%
- pest or weed control at 16 g/ha ([5]; post-emergence, Postemergence): 5%
- pest or weed control at 31 g/ha ([5]; post-emergence, Postemergence): 15%
- pest or weed control at 62 g/ha ([5]; post-emergence, Postemergence): 25%
- pest or weed control at 125 g/ha ([5]; post-emergence, Postemergence): 35%
- pest or weed control at 16 g/ha ([5]; pre-emergence, Preemergence): 0%
- pest or weed control at 31 g/ha ([5]; pre-emergence, Preemergence): 10%
- pest or weed control at 62 g/ha ([5]; pre-emergence, Preemergence): 10%
- pest or weed control at 125 g/ha ([5]; pre-emergence, Preemergence): 40%
- pest or weed control at 16 g/ha ([6]; post-emergence, Postemergence): 55%
- pest or weed control at 31 g/ha ([6]; post-emergence, Postemergence): 85%
- pest or weed control at 62 g/ha ([6]; post-emergence, Postemergence): 100%
- pest or weed control at 125 g/ha ([6]; post-emergence, Postemergence): 100%
- pest or weed control at 16 g/ha ([6]; pre-emergence, Preemergence): 80%
- pest or weed control at 31 g/ha ([6]; pre-emergence, Preemergence): 100%
- pest or weed control at 62 g/ha ([6]; pre-emergence, Preemergence): 100%
- pest or weed control at 125 g/ha ([6]; pre-emergence, Preemergence): 100%
- pest or weed control at 16 g/ha ([7]; post-emergence, Postemergence): 20%
- pest or weed control at 31 g/ha ([7]; post-emergence, Postemergence): 60%
- pest or weed control at 62 g/ha ([7]; post-emergence, Postemergence): 60%
- pest or weed control at 125 g/ha ([7]; post-emergence, Postemergence): 75%
- pest or weed control at 16 g/ha ([7]; pre-emergence, Preemergence): 10%
- pest or weed control at 31 g/ha ([7]; pre-emergence, Preemergence): 100%
- pest or weed control at 62 g/ha ([7]; pre-emergence, Preemergence): 100%
- pest or weed control at 125 g/ha ([7]; pre-emergence, Preemergence): 100%
- pest or weed control at 16 g/ha ([8]; post-emergence, Postemergence): 90%
- pest or weed control at 31 g/ha ([8]; post-emergence, Postemergence): 80%
- pest or weed control at 62 g/ha ([8]; post-emergence, Postemergence): 95%
- pest or weed control at 125 g/ha ([8]; post-emergence, Postemergence): 95%
- pest or weed control at 16 g/ha ([8]; pre-emergence, Preemergence): 55%
- pest or weed control at 31 g/ha ([8]; pre-emergence, Preemergence): 100%
- pest or weed control at 62 g/ha ([8]; pre-emergence, Preemergence): 100%
- pest or weed control at 125 g/ha ([8]; pre-emergence, Preemergence): 100%
- pest or weed control at 16 g/ha ([9]; post-emergence, Postemergence): 75%
- pest or weed control at 31 g/ha ([9]; post-emergence, Postemergence): 95%
- pest or weed control at 62 g/ha ([9]; post-emergence, Postemergence): 95%
- pest or weed control at 125 g/ha ([9]; post-emergence, Postemergence): 95%
- pest or weed control at 16 g/ha ([9]; pre-emergence, Preemergence): 80%
- pest or weed control at 31 g/ha ([9]; pre-emergence, Preemergence): 80%
- pest or weed control at 62 g/ha ([9]; pre-emergence, Preemergence): 95%
- pest or weed control at 125 g/ha ([9]; pre-emergence, Preemergence): 100%
- pest or weed control at 16 g/ha ([10]; post-emergence, Postemergence): 10%
- pest or weed control at 31 g/ha ([10]; post-emergence, 31 g ai/ha, Postemergence): 15%
- pest or weed control at 62 g/ha ([10]; post-emergence, Postemergence): 25%
- pest or weed control at 125 g/ha ([10]; post-emergence, Postemergence): 40%
- pest or weed control at 16 g/ha ([10]; pre-emergence, Preemergence): 0%
- pest or weed control at 62 g/ha ([10]; pre-emergence, Preemergence): 100%
- pest or weed control at 125 g/ha ([10]; pre-emergence, Preemergence): 100%
- plant injury at 16 g/ha ([11]; post-emergence, Postemergence): 5%
- plant injury at 31 g/ha ([11]; post-emergence, Postemergence): 10%
- plant injury at 62 g/ha ([11]; post-emergence, Postemergence): 10%
- plant injury at 125 g/ha ([11]; post-emergence, Postemergence): 15%
- plant injury at 16 g/ha ([11]; pre-emergence, Preemergence): 0%
- plant injury at 31 g/ha ([11]; pre-emergence, Preemergence): 5%
- plant injury at 62 g/ha ([11]; pre-emergence, Preemergence): 25%
- plant injury at 125 g/ha ([11]; pre-emergence, Preemergence): 40%
